Tested on: SEM cells
Assay: cell viability relative to DMSO control; higher = less cytotoxic
Conditions: 48 h
How it was run: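 NOMO1 or SEM (500 cells/well) or P12-Ichikawa (1000 cells/well) leukemia cells were adapted for at least four passages in each medium. They were seeded in 1536-well plates (5 μl) and pin-dosed with library compounds in DMSO over an 11-point threefold series, 47 μM to 0.79 nM. CellTiter-Glo One luminescence was read after 48 h at 37°C. Viability is the per-plate percentage relative to DMSO wells, with cell-free wells as background.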

[1] = HPLM + 10% dialyzed FBS, 0.000781 µM
[2] = HPLM + 10% dialyzed FBS, 0.00234 µM
[3] = HPLM + 10% dialyzed FBS, 0.00702 µM
[4] = HPLM + 10% dialyzed FBS, 0.0211 µM
[5] = HPLM + 10% dialyzed FBS, 0.0632 µM
[6] = HPLM + 10% dialyzed FBS, 0.19 µM
[7] = HPLM + 10% dialyzed FBS, 0.569 µM
[8] = HPLM + 10% dialyzed FBS, 1.71 µM
[9] = HPLM + 10% dialyzed FBS, 5.12 µM
[10] = HPLM + 10% dialyzed FBS, 15.4 µM
[11] = HPLM + 10% dialyzed FBS, 46.1 µM
[12] = RPMI 5 mM glucose + 10% FBS, 0.000781 µM
[13] = RPMI 5 mM glucose + 10% FBS, 0.00234 µM
[14] = RPMI 5 mM glucose + 10% FBS, 0.00702 µM
[15] = RPMI 5 mM glucose + 10% FBS, 0.0211 µM
[16] = RPMI 5 mM glucose + 10% FBS, 0.0632 µM
[17] = RPMI 5 mM glucose + 10% FBS, 0.19 µM
[18] = RPMI 5 mM glucose + 10% FBS, 0.569 µM
[19] = RPMI 5 mM glucose + 10% FBS, 1.71 µM
[20] = RPMI 5 mM glucose + 10% FBS, 5.12 µM
[21] = RPMI 5 mM glucose + 10% FBS, 15.4 µM
[22] = RPMI 5 mM glucose + 10% FBS, 46.1 µM
[23] = RPMI 5 mM glucose + 10% dialyzed FBS, 0.000781 µM
[24] = RPMI 5 mM glucose + 10% dialyzed FBS, 0.00234 µM
[25] = RPMI 5 mM glucose + 10% dialyzed FBS, 0.00702 µM
[26] = RPMI 5 mM glucose + 10% dialyzed FBS, 0.0211 µM
[27] = RPMI 5 mM glucose + 10% dialyzed FBS, 0.0632 µM
[28] = RPMI 5 mM glucose + 10% dialyzed FBS, 0.19 µM
[29] = RPMI 5 mM glucose + 10% dialyzed FBS, 0.569 µM
[30] = RPMI 5 mM glucose + 10% dialyzed FBS, 1.71 µM
[31] = RPMI 5 mM glucose + 10% dialyzed FBS, 5.12 µM
[32] = RPMI 5 mM glucose + 10% dialyzed FBS, 15.4 µM
[33] = RPMI 5 mM glucose + 10% dialyzed FBS, 46.1 µM

SMILES | cell viability [1] | cell viability [2] | cell viability [3] | cell viability [4] | cell viability [5] | cell viability [6] | cell viability [7] | cell viability [8] | cell viability [9] | cell viability [10] | cell viability [11] | cell viability [12] | cell viability [13] | cell viability [14] | cell viability [15] | cell viability [16] | cell viability [17] | cell viability [18] | cell viability [19] | cell viability [20] | cell viability [21] | cell viability [22] | cell viability [23] | cell viability [24] | cell viability [25] | cell viability [26] | cell viability [27] | cell viability [28] | cell viability [29] | cell viability [30] | cell viability [31] | cell viability [32] | cell viability [33]
COc1cc(OC2CCN(C)CC2)ccc1Nc1ncc2c(n1)n(C1CCCC1)c(=O)n2C | 63.8% | 87.5% | 78.2% | 69.4% | 77.3% | 99% | 97.3% | 64.7% | 59% | 25.6% | 2.44% | 87.4% | 80.4% | 79.3% | 81.1% | 99% | 90.1% | 83.2% | 67.4% | 76.1% | 20.7% | 2.73% | 74.2% | 88.5% | 71.9% | 75.4% | 78.3% | 96.1% | 84.4% | 55.4% | 67.7% | 26.6% | 2.25%
Cc1cnn(C)c1C(=O)Nc1cc(Nc2ccc3c(/C=C/c4ccccn4)n[nH]c3c2)ccc1F | 114% | 123% | 112% | 103% | 110% | 89.6% | 72.4% | 70.7% | 63.4% | 49.7% | 23.8% | 120% | 118% | 121% | 107% | 104% | 87.8% | 67% | 62.1% | 45.4% | 28.4% | 4.94% | 114% | 119% | 144% | 124% | 103% | 89.1% | 75.9% | 68.3% | 60.6% | 43% | 14.2%
CCN(CC)CCCCNc1ncc2cc(-c3cc(OC)cc(OC)c3)c(NC(=O)NC(C)(C)C)nc2n1 | 89.9% | 104% | 119% | 114% | 86.2% | 98.6% | 105% | 84% | 70.3% | 46.2% | 9.92% | 118% | 113% | 107% | 109% | 100% | 90.7% | 92.1% | 78.8% | 87% | 53.6% | 17% | 112% | 105% | 113% | 106% | 97.7% | 108% | 95.4% | 81% | 76.6% | 44.9% | 14.4%
CC(C)c1ccc2c(c1)c(SC(C)(C)C)c(CC(C)(C)C(=O)[O-])n2Cc1ccc(Cl)cc1 | 104% | 96.6% | 107% | 100% | 106% | 95.3% | 103% | 101% | 106% | 107% | 83.2% | 101% | 84% | 109% | 99.7% | 96.9% | 102% | 89.9% | 101% | 93.5% | 89.5% | 75% | 98.9% | 103% | 106% | 107% | 97.6% | 104% | 91.6% | 88.5% | 92.5% | 97.5% | 89.9%
N[S+]([O-])(=O)C1=C(Cl)C=C2\N=C/N[S+]([O-])(=O)C2=C1 | 91.1% | 96.5% | 111% | 99% | 91.2% | 59.6% | 123% | 105% | 114% | 148% | 122% | 101% | 104% | 94.3% | 78.1% | 92.5% | 45.3% | 122% | 119% | 104% | 107% | 123% | 109% | 98.7% | 103% | 80.2% | 101% | 56.3% | 134% | 109% | 109% | 123% | 133%
CC(C)C1NC(=O)C(NC(=O)C2=C3\N=C\4/C(=C(C)\C(=O)\C(=C4C(=O)NC5C(C)OC(=O)C(C(C)C)N(C)C(=O)CN(C)C(=O)C6CCCN6C(=O)C(NC5=O)C(C)C)N)OC3=C(C)C=C2)C(C)OC(=O)C(C(C)C)N(C)C(=O)CN(C)C(=O)C7CCCN7C1=O (centres undefined) | 8.02% | 8.45% | 8.63% | 7.17% | 5.33% | 4.97% | 5.75% | 5.02% | 3.36% | 1.81% | 1.57% | 6.55% | 8.45% | 7.11% | 5.21% | 4.11% | 3.76% | 4.54% | 3.75% | 2.28% | 1.15% | 1.09% | 6.94% | 7.82% | 7.08% | 7.7% | 5.11% | 4.36% | 5.1% | 3.89% | 1.96% | 2.2% | 1.26%
OC[C@@H](O)[C@@H](O)[C@H](O)[C@@H](O)CO | 68.4% | 85.4% | 88.2% | 105% | 98.4% | 101% | 13.8% | 60% | 103% | 97% | 105% | 102% | 105% | 103% | 99.5% | 113% | 111% | 11.4% | 110% | 112% | 116% | 108% | 104% | 97.4% | 119% | 97.3% | 108% | 124% | 12.5% | 118% | 133% | 120% | 113%
c1ccc2[nH]c(-c3cscn3)nc2c1 | 93.6% | 120% | 111% | 107% | 115% | 105% | 109% | 69% | 111% | 42.7% | 116% | 98.5% | 132% | 121% | 85.9% | 112% | 108% | 126% | 71.3% | 103% | 23.7% | 71.7% | 112% | 127% | 121% | 94.4% | 129% | 132% | 139% | 80.6% | 124% | 33.7% | 97.3%

From the supplement of paper PMC11451515
